We go through 1 molecule from BindingDB's records for doi:10.1038/sj.bjp.0705964 (Johnson & Johnson Pharmaceutical Research and Development, 2004).

Among the targets are Hrh3 protein (Rattus norvegicus, UniProt Q5PPG3); Histamine H4 receptor (Homo sapiens, UniProt Q9H3N8); Histamine H2 receptor (Homo sapiens, UniProt P25021).

Chain of Histamine H4 receptor (Q9H3N8 whole entry): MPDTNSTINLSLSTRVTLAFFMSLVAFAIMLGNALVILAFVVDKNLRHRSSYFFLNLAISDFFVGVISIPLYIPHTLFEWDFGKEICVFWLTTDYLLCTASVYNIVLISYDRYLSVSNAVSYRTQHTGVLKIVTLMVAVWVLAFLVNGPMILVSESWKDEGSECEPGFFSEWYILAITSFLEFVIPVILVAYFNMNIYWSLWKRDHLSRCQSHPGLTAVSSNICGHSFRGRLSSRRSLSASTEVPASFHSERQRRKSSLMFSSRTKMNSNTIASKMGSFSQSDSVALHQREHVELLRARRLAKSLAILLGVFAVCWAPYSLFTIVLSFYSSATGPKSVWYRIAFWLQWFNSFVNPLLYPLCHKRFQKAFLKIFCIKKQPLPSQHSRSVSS
Chain of Hrh3 protein (Q5PPG3 whole entry): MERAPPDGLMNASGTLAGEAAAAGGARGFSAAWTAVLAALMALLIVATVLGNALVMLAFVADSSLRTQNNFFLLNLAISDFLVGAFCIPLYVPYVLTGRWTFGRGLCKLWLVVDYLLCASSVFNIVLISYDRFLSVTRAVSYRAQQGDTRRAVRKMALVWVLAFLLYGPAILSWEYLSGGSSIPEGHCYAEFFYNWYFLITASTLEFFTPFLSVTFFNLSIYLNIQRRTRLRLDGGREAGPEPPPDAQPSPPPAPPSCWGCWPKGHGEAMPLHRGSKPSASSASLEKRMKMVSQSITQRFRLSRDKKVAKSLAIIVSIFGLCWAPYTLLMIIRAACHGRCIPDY
Chain of Histamine H2 receptor (P25021 whole entry): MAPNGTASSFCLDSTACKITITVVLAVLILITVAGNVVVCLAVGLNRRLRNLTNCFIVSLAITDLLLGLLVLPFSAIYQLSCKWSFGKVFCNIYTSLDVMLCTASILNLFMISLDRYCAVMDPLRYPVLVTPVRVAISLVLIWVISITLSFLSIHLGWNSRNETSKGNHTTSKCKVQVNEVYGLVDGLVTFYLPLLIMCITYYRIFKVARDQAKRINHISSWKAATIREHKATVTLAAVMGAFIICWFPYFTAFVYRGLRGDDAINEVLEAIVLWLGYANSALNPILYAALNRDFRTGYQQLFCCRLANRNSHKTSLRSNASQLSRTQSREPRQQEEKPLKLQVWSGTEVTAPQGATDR

For `c1cc(OCCCN2CCCCC2)ccc1CN1CCCCC1` [1-(3-(4-(piperidin-1-ylmethyl)phenoxy)propyl)piperidine], the Ki (as a rule, a measure of affinity in units of concentration, obtained from inhibition or displacement) at Hrh3 protein was 0.00126 µM; at Histamine H4 receptor, over 10 µM; at Histamine H2 receptor it was over 10 µM.
